Data as given in ChEMBL document CHEMBL4330060, “Design and development of some phenyl benzoxazole derivatives as a potent acetylcholinesterase inhibitor with antioxidant property to enhance learning and memory” (Eur J Med Chem, 2019).
The source made the active and inactive calls. The rule behind the calls is not given here.

Columns and labels:
[1] = molecular target: T1, Acetylcholinesterase (Electrophorus electricus, UniProt O42275); assay: Inhibition of Electric eel AChE using acetylthiocholine iodide as substrate after 10 mins measured for every mins by Ellman's method
T1 sequence (O42275 whole entry): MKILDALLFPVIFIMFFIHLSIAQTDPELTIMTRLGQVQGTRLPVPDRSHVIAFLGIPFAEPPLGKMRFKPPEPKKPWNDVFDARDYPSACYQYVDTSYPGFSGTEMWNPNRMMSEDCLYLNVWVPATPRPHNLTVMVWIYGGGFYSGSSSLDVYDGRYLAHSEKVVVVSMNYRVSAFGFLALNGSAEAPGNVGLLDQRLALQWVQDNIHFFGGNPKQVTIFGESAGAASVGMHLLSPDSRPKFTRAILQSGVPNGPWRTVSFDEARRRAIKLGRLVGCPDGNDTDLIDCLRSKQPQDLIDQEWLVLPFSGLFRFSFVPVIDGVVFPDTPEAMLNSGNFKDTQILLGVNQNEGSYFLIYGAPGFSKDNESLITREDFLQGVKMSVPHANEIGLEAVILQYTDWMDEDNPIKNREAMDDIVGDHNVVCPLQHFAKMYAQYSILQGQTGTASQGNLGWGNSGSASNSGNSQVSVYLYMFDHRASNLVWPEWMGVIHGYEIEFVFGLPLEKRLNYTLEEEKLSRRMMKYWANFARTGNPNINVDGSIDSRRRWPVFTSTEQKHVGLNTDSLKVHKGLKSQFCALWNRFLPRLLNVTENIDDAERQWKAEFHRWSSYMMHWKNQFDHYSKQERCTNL

[2] = Antioxidant activity assessed as DPPH radical scavenging activity at 10 uM after 30 mins under dark condition relative to control; type: functional
[3] = Selectivity index, ratio of IC50 for human serum BChE to IC50 for Electric eel AChE
[4] = molecular target: Cholinesterase (Homo sapiens, UniProt P06276); assay: Inhibition of human serum BChE using butyrylthiocholine iodide as substrate after 10 mins measured for every mins by Ellman's method
Cholinesterase, sequence (P06276 whole entry): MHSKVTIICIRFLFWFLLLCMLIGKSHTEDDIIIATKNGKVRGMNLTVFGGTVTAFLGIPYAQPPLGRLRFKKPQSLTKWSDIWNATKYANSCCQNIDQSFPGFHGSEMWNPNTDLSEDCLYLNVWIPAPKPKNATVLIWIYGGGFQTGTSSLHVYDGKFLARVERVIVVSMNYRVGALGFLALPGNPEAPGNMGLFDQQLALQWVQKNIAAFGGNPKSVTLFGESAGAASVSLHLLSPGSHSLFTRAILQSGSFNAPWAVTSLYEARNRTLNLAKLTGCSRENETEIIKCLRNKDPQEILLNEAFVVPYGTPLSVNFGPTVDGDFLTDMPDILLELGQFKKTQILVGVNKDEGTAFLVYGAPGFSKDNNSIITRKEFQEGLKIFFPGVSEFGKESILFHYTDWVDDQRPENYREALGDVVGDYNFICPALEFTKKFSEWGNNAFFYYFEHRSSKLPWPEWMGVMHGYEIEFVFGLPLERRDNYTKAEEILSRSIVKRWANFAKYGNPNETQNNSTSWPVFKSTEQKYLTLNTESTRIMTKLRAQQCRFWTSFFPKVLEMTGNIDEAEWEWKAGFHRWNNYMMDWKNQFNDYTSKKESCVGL

[5] = test system: Mus musculus; assay: Cognitive enhancing effect in Swiss albino mouse assessed as reversal of scopolamine-induced reduction in spontaneous alteration score at 1 mg/kg, ip qd pretreated for 1 hr followed by scopolamine addition by Y-maze test; type: functional, organism-based
[6] = Neurotoxicity in Swiss albino mouse assessed as motor coordination by measuring fall off time at 5 mg/kg, po after 1 hr by rota rod test (reference value: 310.61 +/- 26.64 sec); type: toxicity, organism-based; conditions: in vivo
[7] = test system: Mus musculus; assay: Memory enhancing effect in Swiss albino mouse assessed as reversal of scopolamine-induced reduction in latency time at 1 mg/kg, ip qd pretreated for 1 hr followed by scopolamine addition by passive avoidance test; type: functional, organism-based
[8] = Effective permeability of the compound by PAMPA; type: ADME; conditions: read-out: Peff
[9] = in vitro; conditions: PAMPA, pH 7.4
Description: Effective permeability of the compound at pH 7.4 after 18 hrs by PAMPA-BBB assay

[10] = test system: Mus musculus; assay: Memory enhancing effect in Swiss albino mouse assessed as reversal of scopolamine-induced reduction in latency time at 5 mg/kg, ip qd pretreated for 1 hr followed by scopolamine addition by passive avoidance test; type: functional, organism-based
[11] = test system: Mus musculus; assay: Cognitive enhancing effect in Swiss albino mouse assessed as reversal of scopolamine-induced cainophobia behavior by measuring increase in number of novel arm entries at 1 to 20 mg/kg, ip qd pretreated for 1 hr followed by scopolamine addition by Y-maze test; type: functional, organism-based
[12] = molecular target: Acetylcholinesterase (Homo sapiens) (UniProt P22303); assay: Displacement of Propidium iodide from PAS region of AChE (unknown origin) after 20 hrs by fluorescence assay relative to control; conditions: concentration not given here
Acetylcholinesterase (Homo sapiens), sequence (P22303 whole entry): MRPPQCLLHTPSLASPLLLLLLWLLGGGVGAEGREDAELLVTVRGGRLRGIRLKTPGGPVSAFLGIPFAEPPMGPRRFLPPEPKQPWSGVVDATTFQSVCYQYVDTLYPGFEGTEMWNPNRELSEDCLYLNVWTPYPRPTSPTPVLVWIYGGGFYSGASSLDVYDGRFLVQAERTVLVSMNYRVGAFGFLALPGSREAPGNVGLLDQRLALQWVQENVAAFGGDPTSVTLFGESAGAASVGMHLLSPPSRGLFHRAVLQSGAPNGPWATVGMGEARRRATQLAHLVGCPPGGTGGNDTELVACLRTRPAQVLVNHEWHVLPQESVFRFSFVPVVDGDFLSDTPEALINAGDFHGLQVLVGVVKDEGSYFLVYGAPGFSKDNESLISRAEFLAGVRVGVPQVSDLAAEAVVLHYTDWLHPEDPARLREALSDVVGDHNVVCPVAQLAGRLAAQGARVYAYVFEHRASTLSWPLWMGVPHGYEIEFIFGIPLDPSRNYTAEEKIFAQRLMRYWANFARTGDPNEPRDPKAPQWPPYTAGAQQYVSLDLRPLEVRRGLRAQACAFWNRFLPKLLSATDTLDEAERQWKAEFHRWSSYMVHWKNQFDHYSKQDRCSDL

[13] = Acute toxicity in Swiss albino mouse assessed as abnormal behavior at 100 mg/kg, po measured at 14 days post administration; type: organism-based; conditions: in vivo, 336 h
[14] = molecular target: T1, Acetylcholinesterase; assay: Inhibition of Electric eel AChE using acetylthiocholine iodide as substrate after 10 mins measured for every mins by Lineweaver-Burk plot analysis
[15] = Acute toxicity in Swiss albino mouse assessed as mortality at 100 mg/kg, po measured at 14 days post administration; type: organism-based; conditions: in vivo, 336 h
[16] = Acute toxicity in Swiss albino mouse up to 100 mg/kg, po measured until 14 days; type: organism-based; conditions: in vivo, 336 h
[17] = test system: Mus musculus; assay: In vivo antioxidant activity in Swiss albino mouse brain assessed as decrease in MDA level at 5 mg/kg, ip qd pretreated for 1 hr followed by scopolamine addition by TBARS assay; type: functional, organism-based
[18] = test system: Mus musculus; assay: In vivo antioxidant activity in Swiss albino mouse brain assessed as increase in catalase activity by measuring decrease in H2O2 level at 5 mg/kg, ip qd pretreated for 1 hr followed by scopolamine addition; type: functional, organism-based
[19] = test system: Mus musculus; assay: In vivo antioxidant activity in Swiss albino mouse brain assessed as increase in GSH level at 5 mg/kg, ip qd pretreated for 1 hr followed by scopolamine addition; type: functional, organism-based
[20] = test system: Mus musculus; assay: Cognitive enhancing effect in Swiss albino mouse assessed as reversal of scopolamine-induced anxiety by measuring increase in number of novel arm entries at 1 to 20 mg/kg, ip qd pretreated for 1 hr followed by scopolamine addition by Y-maze test; type: functional, organism-based
[21] = test system: Mus musculus; assay: Cognitive enhancing effect in Swiss albino mouse assessed as reversal of scopolamine-induced reduction in spontaneous alteration score at 5 mg/kg, ip qd pretreated for 1 hr followed by scopolamine addition by Y-maze test; type: functional, organism-based
[22] = test system: Mus musculus; assay: Ex vivo inhibition of AChE in Swiss albino mouse brain at 5 mg/kg, ip qd pretreated for 1 hr followed by scopolamine addition using acetylthiocholine iodide as substrate by Ellman's method; type: functional, organism-based
[23] = test system: Mus musculus; assay: In vivo antioxidant activity in Swiss albino mouse brain assessed as increase in SOD level at 5 mg/kg, ip qd pretreated for 1 hr followed by scopolamine addition measured every 30 secs interval for 2 mins; type: functional, organism-based
[24] = test system: Mus musculus; assay: In vivo antioxidant activity in Swiss albino mouse brain assessed as decrease in nitric oxide level at 5 mg/kg, ip qd pretreated for 1 hr followed by scopolamine addition by Griess reagent based assay; type: functional, organism-based

Structure (SMILES) | IC50 [1] [µM] | Activity [2] [%] | IC50 [4] [µM] | further results
CN(C)C(=O)Oc1ccccc1-c1nc2ccccc2o1 | 58.2 | – | – | –
OC(CNc1ccccc1)CNc1ccc(-c2nc3ccccc3o2)cc1 (stereo unspecified) | 0.842 | 48.2 | 3.54 | Ratio IC50 [3]: 4.2
O=[N+]([O-])c1ccc(CNc2ccc(-c3nc4ccccc4o3)cc2)cc1 | 24.2 | 22.7 | > 50 | –
Clc1ccc(/C=N/c2ccc(-c3nc4ccccc4o3)cc2)cc1 | 2.27 | < 10 | > 50 | –
O=c1ccc2ccc(OCCCCCSc3nc4ccccc4o3)cc2o1 | 25.4 | – | – | –
CC(C)c1ccc(/C=N/c2ccc(-c3nc4ccccc4o3)cc2)cc1 | > 50 | < 10 | > 50 | –
CC(C)c1ccc(NC(=S)Nc2ccc(-c3nc4ccccc4o3)cc2)cc1 | > 50 | 42.3 | > 50 | –
Oc1ccc(/C=N/c2ccc(-c3nc4ccccc4o3)cc2)cc1 | 0.94 | 31.8 | 27 | Ratio IC50 [3]: 28.7
S=C(Nc1ccc(Cl)cc1)Nc1ccc(-c2nc3ccccc3o2)cc1 | 12.6 | 40 | > 50 | –
O=[N+]([O-])c1ccc(/C=N/c2ccc(-c3nc4ccccc4o3)cc2)cc1 | 1.79 | < 10 | > 50 | –
COc1cc2c(cc1OC)C(=O)C(CC1CCN(Cc3ccccc3)CC1)C2 (stereo unspecified) [DONEPEZIL] | – | < 10 | – | Activity [5]: Active; Time [6]: 167.75 s; Activity [7]: Active
Brc1ccc(CNc2ccc(-c3nc4ccccc4o3)cc2)cc1 | 8.44 | 18.5 | > 50 | –
O=C1O[C@H]([C@@H](O)CO)C(O)=C1O | – | 56.6 | – | –
CC(C)c1ccc(CNc2ccc(-c3nc4ccccc4o3)cc2)cc1 | > 50 | 27.5 | > 50 | –
O=[N+]([O-])c1ccc(NC(=S)Nc2ccc(-c3nc4ccccc4o3)cc2)cc1 | 9.43 | 45.9 | > 50 | –
O=[N+]([O-])c1ccc(NCC(O)CNc2ccc(-c3nc4ccccc4o3)cc2)cc1 (stereo unspecified) | 1.15 | 44.4 | > 50 | –
O=c1cc(-c2ccccc2)c2ccc(NCCCSc3nc4ccccc4o3)cc2o1 | 13 | – | – | –
Oc1ccc(CNc2ccc(-c3nc4ccccc4o3)cc2)cc1 | 0.723 | 39.4 | 4.71 | Ratio IC50 [3]: 6.5
S=C(Nc1ccc(Br)cc1)Nc1ccc(-c2nc3ccccc3o2)cc1 | 8.72 | 43.1 | > 50 | –
Cc1nnc2n1-c1ccc(Cl)cc1C(c1ccccc1)=NC2 [ALPRAZOLAM] | – | – | – | Papp [8]: 5.4 ×10⁻⁶ cm/s; Papp at 18 h [9]: 4.2 ×10⁻⁶ cm/s
c1ccc(CNc2ccc(-c3nc4ccccc4o3)cc2)cc1 | 7.21 | 24.1 | > 50 | –
CC(C)c1ccc(NCC(O)CNc2ccc(-c3nc4ccccc4o3)cc2)cc1 (stereo unspecified) | 8.02 | 39.1 | > 50 | Activity [10]: Active
OC(CNc1ccc(Br)cc1)CNc1ccc(-c2nc3ccccc3o2)cc1 (stereo unspecified) | 1.31 | 42.4 | > 50 | –
S=C(Nc1ccccc1)Nc1ccc(-c2nc3ccccc3o2)cc1 | > 50 | 45.3 | > 50 | –
Brc1ccc(/C=N/c2ccc(-c3nc4ccccc4o3)cc2)cc1 | 37.3 | < 10 | > 50 | –
Clc1ccc(CNc2ccc(-c3nc4ccccc4o3)cc2)cc1 | 6.3 | 25.1 | > 50 | –
OC(CNc1ccc(Cl)cc1)CNc1ccc(-c2nc3ccccc3o2)cc1 (stereo unspecified) | 0.363 | 49.6 | 2.29 | Activity [5]: inactive; Activity [11]: Active; inhibition [12]: 11.2%; Papp at 18 h [9]: 4.55 ×10⁻⁶ cm/s; Activity [13]: Non-Toxic; Time [6]: 298.75 s; Ki [14]: 0.19 µM; Activity [15]: Non-Toxic; Activity [16]: Non-Toxic; Ratio IC50 [3]: 6.3; Activity [17]: Active; Activity [18]: Active; Activity [19]: Active; Activity [20]: Active; Activity [21]: Active; inhibition [22]: Active; Activity [23]: Active; Activity [24]: Active
Oc1ccc(NCC(O)CNc2ccc(-c3nc4ccccc4o3)cc2)cc1 (stereo unspecified) | 0.807 | 50 | 2.74 | Ratio IC50 [3]: 3.4
Oc1ccc(NC(=S)Nc2ccc(-c3nc4ccccc4o3)cc2)cc1 | 0.882 | 50.2 | 27.4 | Ratio IC50 [3]: 31
C(=N\c1ccc(-c2nc3ccccc3o2)cc1)/c1ccccc1 | > 50 | < 10 | > 50 | –
